Laboratory results taken from patent US4226775A, “Substituted thio-substituted benzyl-propionyl-L-prolines” (American Cyanamid Company, priority 1979, dated 1980).

These compounds were tested against T1, angiotensin converting enzyme (ACE) (Oryctolagus cuniculus, UniProt P12822) (assay: Spectrophotometric assay for angiotensin converting enzyme inhibitors). Settings: crude ACE extract from rabbit lung; substrate benzoyl-glycyl-histidyl-leucine; 30 minutes at 37° C.; absorbance at 228 nm.
T1 construct: The ACE was extracted from rabbit lung acetane powder (Pel-Freez, Biol. Inc.); tissue Pel-Freez, Biol. Inc; host or cells: rabbit lung acetone powder, crude extract (40,000 g supernatant)
T1 sequence (P12822 34-1310): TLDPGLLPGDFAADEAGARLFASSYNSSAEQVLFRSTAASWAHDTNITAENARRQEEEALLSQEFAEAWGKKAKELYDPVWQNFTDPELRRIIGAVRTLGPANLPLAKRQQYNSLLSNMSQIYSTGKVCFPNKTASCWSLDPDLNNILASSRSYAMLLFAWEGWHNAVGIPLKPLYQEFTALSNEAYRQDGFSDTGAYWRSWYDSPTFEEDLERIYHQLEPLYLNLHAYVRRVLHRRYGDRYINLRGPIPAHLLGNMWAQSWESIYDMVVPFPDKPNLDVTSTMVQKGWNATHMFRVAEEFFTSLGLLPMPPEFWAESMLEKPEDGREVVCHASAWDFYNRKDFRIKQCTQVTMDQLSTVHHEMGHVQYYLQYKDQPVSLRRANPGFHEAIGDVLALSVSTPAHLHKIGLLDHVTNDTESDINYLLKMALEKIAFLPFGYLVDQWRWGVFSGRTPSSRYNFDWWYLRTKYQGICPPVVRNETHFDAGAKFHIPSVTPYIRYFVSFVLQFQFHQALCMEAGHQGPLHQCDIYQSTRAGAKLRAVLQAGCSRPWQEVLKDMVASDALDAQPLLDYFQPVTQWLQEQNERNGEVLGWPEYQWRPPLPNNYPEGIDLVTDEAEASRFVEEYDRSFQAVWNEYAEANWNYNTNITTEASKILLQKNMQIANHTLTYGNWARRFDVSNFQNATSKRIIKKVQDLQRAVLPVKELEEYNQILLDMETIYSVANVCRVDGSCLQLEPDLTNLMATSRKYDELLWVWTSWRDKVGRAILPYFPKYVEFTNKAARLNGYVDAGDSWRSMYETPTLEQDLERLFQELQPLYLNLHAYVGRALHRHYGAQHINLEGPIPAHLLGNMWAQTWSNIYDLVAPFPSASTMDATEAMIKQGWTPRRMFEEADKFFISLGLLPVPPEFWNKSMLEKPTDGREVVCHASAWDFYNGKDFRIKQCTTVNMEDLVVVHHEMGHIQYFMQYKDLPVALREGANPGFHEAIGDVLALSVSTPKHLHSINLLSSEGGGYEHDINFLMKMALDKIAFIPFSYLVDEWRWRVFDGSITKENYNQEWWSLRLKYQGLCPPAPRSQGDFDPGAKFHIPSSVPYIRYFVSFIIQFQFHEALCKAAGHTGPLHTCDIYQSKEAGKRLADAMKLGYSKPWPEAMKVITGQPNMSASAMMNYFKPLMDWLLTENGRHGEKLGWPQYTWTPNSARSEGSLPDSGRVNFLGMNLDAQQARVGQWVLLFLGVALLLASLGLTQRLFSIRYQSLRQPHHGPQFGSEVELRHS
Type: biochemical
Procedure: The activity of the novel compounds of this invention as hypotensive agents was established in two systems which measure their ability as angiotensin converting enzyme inhibitors; namely, a spectrophotometric assay of the compounds in vitro and by the measurement of the blood pressure lowering effect of the compounds in the aorta-coarcted renal hypertensive rats.
The in vitro activity for inhibition of the angiotensin converting enzyme (ACE) was measured by the method of Cushman, D. W. and Cheung, H. S., Biochem. Pharmacol. 20, 1637-1648 (1971), using benzoyl-glycyl-histidyl-leucine as the substrate. The reaction mixture consisted of 50 ml. of potassium phosphate (500 mM., […]), […]. of sodium chloride (2500 mM.), 25 ml. of substrate (50 mM), 30 to 50 ml. of the crude extract of ACE, 10 ml. of test compound (2.5 mM) or vehicle and a suitable amount of distilled water to give a total volume of 250 ml. This reaction mixture was incubated for 30 minutes at 37° C. and the reaction was then terminated by the addition of 250 ml. of 1 N hydrochloric acid. The hippuric acid was then extracted with 1.5 ml. of ethyl acetate by vortex mixing for 15 seconds. After centrifugation, 1 ml. of the ethyl acetate layer was pipetted into a new tube and evaporated to dryness. The extracted hippuric acid was then dissolved in 1 ml. of water and the amount of this acid was then measured by its absorbance at 228 nm. The ACE was extracted from rabbit lung acetane powder (Pel-Freez, Biol. Inc.) by blending 5 g. of the powder in 50 ml. of phosphate buffer (50 mM, pH 8.3) and then centrifuging at 40,000 g for 30 minutes. The supernatant was then kept at 5° C. and used as the enzyme source. The activity of the ACE inhibitor was calculated as the percent inhibition of ACE activity compared to the control value of that particular assay. A full dose-response inhibitory curve is then performed to determine the IC50 value which may be defined as the molar concentration of a compound that will inhibit the ACE activity by 50%.

Compared with CC(=O)S[C@H](C(=O)c1ccccc1)[C@@H](C)C(=O)N1CCC[C@H]1C(=O)O [[S-(R*,R*)]-1-(3-acetylthio-3-benzoyl-2-methylpropionyl)-L-proline], CC(=O)SC(C(=O)c1ccccc1)C(C)C(=O)N1CCC[C@H]1C(=O)O (stereo partly drawn) [1-(3-Acetylthio-3-benzoyl-2-methylpropionyl)-L-proline] is 1.9-fold higher in IC50: 0.078 µM for the first, 0.147 µM for the second.

First: CC(=O)SC(C(=O)c1ccc(Cl)cc1)C(C)C(=O)N1CCC[C@H]1C(=O)O (stereo partly drawn) [1-[3-Acetylthio-3-(4-chlorobenzoyl)-2-methylpropionyl]-L-proline]
Second: CC(=O)S[C@H](C(=O)c1ccc(Br)cc1)[C@@H](C)C(=O)N1CCC[C@H]1C(=O)O [[S-(R*,R*)]-1-[3-acetylthio-3-(4-bromobenzoyl)-2-methylpropionyl]-L-proline]
The IC50 of the first is 2.5-fold higher: 0.335 µM for the first, 0.133 µM for the second. The second is the more potent here.

Going from CC(=O)SC(CC(=O)N1CCC[C@H]1C(=O)O)C(=O)c1ccc2ccccc2c1 (stereo partly drawn) [1-[3-Acetylthio-3-(2-naphthoyl)propionyl]-L-proline] to CC(=O)SC(CC(=O)N1CCC[C@H]1C(=O)O)C(=O)c1ccccc1 (stereo partly drawn) [1-(3-Acetylthio-3-benzoylpropionyl)-L-proline], the IC50 rises from 0.13 µM to 0.455 µM (3.5-fold). The first is the more potent here.

Going from O=C(c1cnc(SC(CC(=O)N2CCC[C@H]2C(=O)O)C(=O)c2ccc(Cl)cc2)nc1)c1cccs1 (stereo partly drawn) [1-[3-(4-Chlorobenzoyl)-3-[5-(2-thenoyl)-2-pyrimidinylthio]propionyl]-L-proline] to O=C(c1ccccc1)c1cnc(SC(CC(=O)N2CCC[C@H]2C(=O)O)C(=O)c2ccc(Cl)cc2)nc1 (stereo partly drawn) [1-[3-(5-Benzoyl-2-pyrimidinylthio)-3-(4-chlorobenzoyl)propionyl]-L-proline], the IC50 falls from 5.13 µM to 2.78 µM (1.8-fold). The second is the more potent here.

First: CC(=O)S[C@@H](C(=O)c1ccc(Br)cc1)[C@@H](C)C(=O)N1CCC[C@H]1C(=O)O [[S-(R*,S*)]-1-[3-acetylthio-3-(4-bromobenzoyl)-2-methylpropionyl]-L-proline]
Second: CC(=O)S[C@@H](C(=O)c1ccccc1)[C@@H](C)C(=O)N1CCC[C@H]1C(=O)O [[S-(R*,S*)]-1-(3-Acetylthio-3-benzoyl-2-methylpropionyl)-L-proline]
The IC50 of the first is 1.9-fold higher: 0.0985 µM for the first, 0.0515 µM for the second. The second is the more potent here.

First: CC(=O)SC(CC(=O)N1CCC[C@H]1C(=O)O)C(=O)c1ccc(Oc2ccc(Cl)cc2)cc1 (stereo partly drawn) [1-{3-Acetylthio-3-[4-(4-chlorophenoxy)benzoyl]-propionyl}-L-proline]
Second: CC(=O)SC(CC(=O)N1CCC[C@H]1C(=O)O)C(=O)c1ccc(Cl)cc1 (stereo partly drawn) [1-[3-Acetylthio-3-(4-chlorobenzoyl)propionyl]-L-proline]
The IC50 of the first is 4.3-fold higher: 0.358 µM for the first, 0.0826 µM for the second. The second is the more potent here.

First: CC(=O)SC(CC(=O)N1CCC[C@H]1C(=O)O)C(=O)c1cccc(F)c1 (stereo partly drawn) [1-[3-Acetylthio-3-(3-fluorobenzoyl)propionyl]-L-proline]
Second: CC(=O)SC(CC(=O)N1CCC[C@H]1C(=O)O)C(=O)c1ccc(F)cc1 (stereo partly drawn) [1-[3-Acetylthio-3-(4-fluorobenzoyl)propionyl]-L-proline]
The IC50 of the first is 15-fold lower: 0.0316 µM for the first, 0.473 µM for the second. The first is the more potent here.

First: O=C(SC(CC(=O)N1CCC[C@H]1C(=O)O)C(=O)c1ccc(F)cc1)c1ccccc1 (stereo partly drawn) [1-[3-Benzoylthio-3-(4-fluorobenzoyl)propionyl]-L-proline]
Second: O=C(SC(CC(=O)N1CCC[C@H]1C(=O)O)C(=O)c1ccc(Br)cc1)c1ccccc1 (stereo partly drawn) [1-[3-(4-Bromobenzoyl)-3-benzoylthiopropionyl]-L-proline]
The IC50 of the first is 3.1-fold higher: 0.353 µM for the first, 0.115 µM for the second. The second is the more potent here.

First: CC(=O)SC(CC(=O)c1ccccc1)C(=O)N1CCC[C@H]1C(=O)O (stereo partly drawn) [1-(2-Acetylthio-3-benzoylpropionyl)-L-proline]
Second: O=C(O)CSC(CC(=O)c1ccccc1)C(=O)N1CCC[C@H]1C(=O)O (stereo partly drawn) [1-[3-Benzoyl-2-(carboxymethylthio)propionyl]-L-proline]
The IC50 of the first is 7.5-fold lower: 4.23 µM for the first, 31.6 µM for the second.

Going from CC(=O)S[C@H](C(=O)c1cccc(F)c1)[C@H](C)C(=O)N1CCC[C@H]1C(=O)O [[R-(R*,S*)]-1-[3-acetylthio-3-(3-fluorobenzoyl)-2-methylpropionyl]-L-proline] to CC(=O)S[C@@H](C(=O)c1cccc(F)c1)[C@H](C)C(=O)N1CCC[C@H]1C(=O)O [[R-(R*,R*)]-1-[3-acetylthio-3-(3-fluorobenzoyl)-2-methylpropionyl]-L-proline], the IC50 falls from 280 µM to 16 µM (18-fold).

First: CC(=O)SC(CC(=O)N1CCC[C@H]1C(=O)O)C(=O)c1ccc2c(c1)CCC2 (stereo partly drawn) [1-[3-acetylthio-3-(5-indanylcarbonyl)propionyl]-L-proline]
Second: COc1ccc(C(=O)C(CC(=O)N2CCC[C@H]2C(=O)O)SC(C)=O)cc1F (stereo partly drawn) [1-[3-Acetylthio-3-(3-fluoro-4-methoxybenzoyl)propionyl]-L-proline]
The IC50 of the first is 2.8-fold lower: 0.218 µM for the first, 0.6 µM for the second. The first is the more potent here.

Compared with CC(=O)SC(CC(=O)N1CCC[C@H]1C(=O)O)C(=O)c1ccc(-c2ccccc2)cc1 (stereo partly drawn) [1-[3-Acetylthio-3-(4-biphenylylcarbonyl)propionyl]-L-proline], CC(=O)SC(CC(=O)N1CCC[C@H]1C(=O)O)C(=O)c1ccc(Br)cc1 (stereo partly drawn) [1-[3-Acetylthio-3-(4-bromobenzoyl)propionyl]-L-proline] is 1.5-fold higher in IC50: 0.086 µM for the first, 0.131 µM for the second.

First: CC(=O)S[C@H](C(=O)c1cccc(F)c1)[C@@H](C)C(=O)N1CCC[C@H]1C(=O)O [[S-(R*,R*)]-1-[3-acetylthio-3-(3-fluorobenzoyl)-2-methylpropionyl]-L-proline]
Second: CC(=O)S[C@@H](C(=O)c1cccc(F)c1)[C@@H](C)C(=O)N1CCC[C@H]1C(=O)O [[S-(R*,S*)]-1-[3-acetylthio-3-(3-fluorobenzoyl)-2-methylpropionyl]-L-proline]
The IC50 of the first is 6.3-fold higher: 0.233 µM for the first, 0.037 µM for the second. The second is the more potent here.

Compared with CC(=O)SC(CC(=O)N1CCC[C@H]1C(=O)O)C(=O)c1ccc(C(C)(C)C)cc1 (stereo partly drawn) [1-[3-Acetylthio-3-(4-tert-butylbenzoyl)propionyl]-L-proline], CC(=O)SC(CC(=O)N1CCC[C@H]1C(=O)O)C(=O)c1cccc(C(F)(F)F)c1 (stereo partly drawn) [1-[3-Acetylthio-3-(3-trifluoromethylbenzoyl)propionyl]-L-proline] is 5.8-fold higher in IC50: 0.183 µM for the first, 1.07 µM for the second. The first is the more potent here.

Compared with O=C(SC(CC(=O)N1CCC[C@H]1C(=O)O)C(=O)c1ccccc1)c1ccccc1 (stereo partly drawn) [1-(3-Benzoylthio-3-benzoylpropionyl)-L-proline], O=C(SC(CC(=O)N1CCC[C@H]1C(=O)O)C(=O)c1cccc(F)c1)c1ccccc1 (stereo partly drawn) [1-[3-Benzoylthio-3-(3-fluorobenzoyl)propionyl]-L-proline] is 3.4-fold higher in IC50: 0.513 µM for the first, 1.76 µM for the second. The first is the more potent here.

Compared with O=C(c1ccc(Br)cc1)C(S)CC(=O)N1CCC[C@H]1C(=O)O (stereo partly drawn) [1-[3-(4-Bromobenzoyl)-3-thiopropionyl]-L-proline], CC(=O)SC(C(=O)c1cccc(F)c1)C(C)C(=O)N1CCC[C@H]1C(=O)O (stereo partly drawn) [1-[3-Acetylthio-3-(3-fluorobenzoyl)-2-methylpropionyl]-L-proline] is 5.7-fold lower in IC50: 0.352 µM for the first, 0.0617 µM for the second. The second is the more potent here.
